According to patent US20240246968A1, “SMALL MOLECULE INHIBITORS OF KRAS G12C MUTANT” (Merck Sharp & Dohme LLC, priority 2021, published 2024):

How the values were obtained:
[1] = biological target: T1, interaction between recombinant K-Ras4B G12C mutant protein and cRAF RAS-binding domain (cRAF-RBD) (Homo sapiens, UniProt P01116, G12C); assay: Inhibitory activity on interaction between KRAS G12C and cRAF (Alpha technology); format: biochemical; details: GMPPNP-bound KRAS G12C incubated with compound at 25° C. for 1 hour, then cRAF-RBD; Alpha signal
T1 construct: made in house; host or cells: E. coli
Experimental: Interaction between recombinant K-Ras4B G12C mutant protein (amino acids 1-169, SEQ ID NO:2) and cRAF RAS-binding domain (cRAF-RBD, amino acids 50-132, Jena Biosciences GmbH) was measured using Alpha technology (PerkinElmer Inc.).
Recombinant KRAS G12C protein with an N-terminal His-tag was expressed in E. coli and purified by affinity chromatography. To prepare GTP-bound form and GDP-bound form of KRAS G12C protein. 50 μM KRAS G12C protein was incubated with 1 mM GMPPNP (Guanosine-5′-[(β,γ)-imido]triphosphate. Tetralithium salt)(Jena Bioscience GmbH) and 1 mM GDP, respectively, in a loading buffer (20 mM Tris-HCl (pH 7.5), 50 mM NaCl, 1 mM DTT and 2.5 mM EDTA) for 1 hour on ice. After the incubation, MgCl2 was added to a final concentration of 10 mM, followed by incubation at room temperature for 30 minutes. The mixture was allowed to pass through a NAP-5 column to remove free nucleotides and purified, and the resultant nucleotide-bound KRAS G12C protein was used for compound evaluation.
For the measurement of the inhibitory activity of compounds on interaction between KRAS G12C and cRAF-RBD, GMPPNP-bound KRAS G12C protein was incubated with various concentrations of compound in a reaction buffer (20 mM Tris-HCl (pH 7.5), 100 mM NaCl, 1 mM MgCl2, 1 mM TCEP. 0.1% Tween 20) at 25° C. for 1 hour. After the incubation, recombinant cRAF-RBD and Alpha detection reagents were added and incubated at room temperature for 1.5 hours for binding. Interaction of KRAS G12C and cRAF-RBD was monitored by measuring Alpha signal. Inhibition % was calculated using the signal from the reaction without test compound (DMSO control) as 0% inhibition and the signal from the reaction using GDP-bound KRAS G12C in place of GMPPNP-bound KRAS G12C as 100% inhibition. IC50 values were calculated from dose titration curve using curve fitting by XLfit software (IDBS). The following tables show the results.

[2] = system: MIA PaCa-2 cells; assay: Growth inhibition activity on KRAS-G12C mutant cell line (MIA PaCa-2), CellTiter-Glo 3D; format: cell-based, human; details: MIA PaCa-2, 3-day culture with compound
Experimental: MIA PaCa-2 cells (given by Sumitomo Dainippon Pharma Co., Ltd.), which are a KRAS-G12C mutant human pancreas cancer cell line, were suspended in a 10% fetal bovine serum-containing RPMI1640 medium (manufactured by Fujifilm Wako Pure Chemical Corporation.). The cell suspension was seeded into each well of a 384-well U bottom microplate and cultured in an incubator containing 5% CO2 gas at 37° C. for 1 day. The compounds obtained in the “Preparation of Compounds” section were used as test compounds and were dissolved in DMSO, respectively, and each test compound was diluted with DMSO to give a concentration 500 times the final concentration. The resultant solution of the test compound in DMSO was diluted with the medium used for suspending cells and added to each well of the cell-culture plate to give a DMSO final concentration of 0.2%, followed by culture in an incubator containing 5% CO2 gas at 37° C. for another 3 days. The cell count after 3-day culture in the presence of the test compound was measured using CellTiter-Glo 3D Reagent (manufactured by Promega Corporation). All wells were added with CellTiter-Glo 3D Reagent and mixed for 10 minutes. 30 minutes after mixing, luminescence was measured by a plate reader. The growth inhibition rate was calculated from the following equation, and the concentration of the test compound at which 50/o inhibition was achieved (IC50 (nM)) was determined. The following tables show the results.
[formula] • T: the emission intensity in a well into which a test compound was added. • C: the emission intensity in a well into which a test compound was not added.

[3] = biological target: Gppcp-bound recombinant K-Ras4B G12C mutant protein (amino acids 1-169, C51S/C80L/C118S) (Homo sapiens, UniProt P01116, C118S/C51S/C80L/G12C); assay: KRASG12C binding assay (LC-MS, compound binding rate); details: test compound final concentration 0.5 μM, 25° C., 1 hour
Experimental: As test compounds for the KRASG12C binding assay, the compounds obtained in the “Preparation of Compounds” section were used. Sample solutions each containing a test compound were prepared in the form of a 10 mM DMSO solution.
Gppcp-bound recombinant K-Ras4B G12C mutant protein (amino acids 1-169, C51S/C80L/C118S, SEQ ID NO:1) was diluted with a buffer (1×TBS, 0.1 mM TCEP, 0.25 mM MgCl2, 50 μM Gppcp) to prepare a 50 nM protein solution. K-Ras4B is the major splicing variant of K-Ras. Amino acid sequence of residues 1 to 150 including the compounds' binding region of K-Ras4B is exactly same as that of K-Ras4A, the other splicing variant (Oncotarget. 2016 Jul. 19; 7(29): 46717-46733). A sample solution containing 10 mM test compound was diluted ten-fold with DMSO to make a 1 mM sample solution, and then diluted twenty-fold with DMSO to make a 50 μM sample solution. 1 μL of a 50 μM sample solution was added to 100 μL of a 50 nM protein solution to adjust the final concentration of a test compound to be 0.5 μM in the mixture. The mixtures were stored in an incubator at 25° C. for 1 hour, and 10 μL of a 1×TBS solution containing 2% formic acid was added to stop the reaction, followed by LC-MS measurement. LC-MS measurement was performed using Xevo G2-S Q-Tof manufactured by Waters, and reverse-phase chromatography was performed with a desalting column. A mass spectrum of positive ions was obtained by electrospray. For a mass spectrum, a spectrum of polyvalent ions was collectively converted to a molecular weight by using OpenLynx software by the MaxEnt technique, and a compound binding rate was calculated from the ratio of the signal intensity of a peak that corresponds to the molecular weight of the protein to the signal intensity of a peak that corresponds to the molecular weight of the protein conjugated with the compound.
The binding assay of the test compounds was conducted at a final concentration of 0.5 μM. A binding rate of 80% or more is rated “A”, a binding rate of 60% or more and less than 80% is rated “B”, a binding rate of 40% or more and less than 60% is rated “C”, a binding rate of 20% or more and less than 40% is rated “D”, and a binding rate of less than 20% is rated “E”. N.D.=not determined. Binding rate % is the ratio of KRAS signal intensity at the molecular weight of one molecule adduct to the sum of all the KRAS signal intensity (unbound form and adducts) in mass spectrum. Thus, binding rate 100% means that only the one molecule adduct was observed without any unbound KRAS. The following tables show the results.

Row | IC50 [1] [nM] | IC50 [2] [nM] | Compound | binding rate [3]
1 | 25 | 120 | Cc1cc2c(ncn2C)c(Cl)c1-c1cccn2c(C(=O)c3cc(F)c(NC(=O)/C=C/CNC4CCOCC4)c(F)c3)ccc12 (single isomer, unassigned) [Example 27-1, (E)-N-(4-(8-(4-chloro-1,6-dimethyl-1H-benzo[d]imidazol-5-yl)indolizine-3-carbonyl)-2,6-difluorophenyl)-4-((tetrahydro-2H-pyran-4-yl)amino)but-2-enamide] | A (A binding rate of 80% or more is rated “A”)
2 | 120 | 530 | Cc1cc2c(ncn2C)c(Cl)c1-c1cccn2c(C(=O)c3cc(F)c(NC(=O)/C=C/CNC4CCOCC4)c(F)c3)ccc12 (single isomer, unassigned) [Example 27-2, (E)-N-(4-(8-(4-chloro-1,6-dimethyl-1H-benzo[d]imidazol-5-yl)indolizine-3-carbonyl)-2,6-difluorophenyl)-4-((tetrahydro-2H-pyran-4-yl)amino)but-2-enamide] | A (A binding rate of 80% or more is rated “A”)
3 | 31 | 51 | CO[C@H]1CC[C@H](NC/C=C/C(=O)Nc2c(F)cc(C(=O)c3ccc4c(-c5c(C(F)(F)F)cc6c(ncn6C)c5Cl)cccn34)cc2F)CC1 (single isomer, unassigned) [Example 28-1, (E)-N-(4-(8-(4-chloro-1-methyl-6-(trifluoromethyl)-1H-benzo[d]imidazol-5-yl)indolizine-3-carbonyl)-2,6-difluorophenyl)-4-(((1r,4r)-4-methoxycyclohexyl)amino)but-2-enamide] | A (A binding rate of 80% or more is rated “A”)
4 | 800 | 940 | CO[C@H]1CC[C@H](NC/C=C/C(=O)Nc2c(F)cc(C(=O)c3ccc4c(-c5c(C(F)(F)F)cc6c(ncn6C)c5Cl)cccn34)cc2F)CC1 (single isomer, unassigned) [Example 28-2, (E)-N-(4-(8-(4-chloro-1-methyl-6-(trifluoromethyl)-1H-benzo[d]imidazol-5-yl)indolizine-3-carbonyl)-2,6-difluorophenyl)-4-(((1r,4r)-4-methoxycyclohexyl)amino)but-2-enamide] | A (A binding rate of 80% or more is rated “A”)
5 | 130 | 360 | COc1cc(N2CCCC2=O)cc(Cl)c1-c1cccn2c(C(=O)c3cc(F)c(NC(=O)/C=C/CN[C@H]4CC[C@H](OC)CC4)c(F)c3)ccc12 (single isomer, unassigned) [Example 30-1, (E)-N-(4-(8-(2-chloro-6-methoxy-4-(2-oxopyrrolidin-1-yl)phenyl)indolizine-3-carbonyl)-2,6-difluorophenyl)-4-(((1r,4r)-4-methoxycyclohexyl)amino)but-2-enamide] | A (A binding rate of 80% or more is rated “A”)
6 | 61 | 120 | COc1cc(N2CCCC2=O)cc(Cl)c1-c1cccn2c(C(=O)c3cc(F)c(NC(=O)/C=C/CN[C@H]4CC[C@H](OC)CC4)c(F)c3)ccc12 (single isomer, unassigned) [Example 30-2, (E)-N-(4-(8-(2-chloro-6-methoxy-4-(2-oxopyrrolidin-1-yl)phenyl)indolizine-3-carbonyl)-2,6-difluorophenyl)-4-(((1r,4r)-4-methoxycyclohexyl)amino)but-2-enamide] | A (A binding rate of 80% or more is rated “A”)
7 | 21 | 14 | CO[C@H]1CC[C@H](NC/C=C/C(=O)Nc2c(F)cc(C(=O)c3ccc4c(-c5c(C(F)(F)F)cc6c(nc(C)n6C)c5Cl)cccn34)cc2F)CC1 (single isomer, unassigned) [Example 32-1, (E)-N-(4-(8-(4-chloro-1,2-dimethyl-6-(trifluoromethyl)-1H-benzo[d]imidazol-5-yl)indolizine-3-carbonyl)-2,6-difluorophenyl)-4-(((1r,4r)-4-methoxycyclohexyl)amino)but-2-enamide] | A (A binding rate of 80% or more is rated “A”)
8 | 420 | 990 | CO[C@H]1CC[C@H](NC/C=C/C(=O)Nc2c(F)cc(C(=O)c3ccc4c(-c5c(C(F)(F)F)cc6c(nc(C)n6C)c5Cl)cccn34)cc2F)CC1 (single isomer, unassigned) [Example 32-2, (E)-N-(4-(8-(4-chloro-1,2-dimethyl-6-(trifluoromethyl)-1H-benzo[d]imidazol-5-yl)indolizine-3-carbonyl)-2,6-difluorophenyl)-4-(((1r,4r)-4-methoxycyclohexyl)amino)but-2-enamide] | A (A binding rate of 80% or more is rated “A”)
9 | 94 | 130 | CO[C@H]1CC[C@H](NC/C=C/C(=O)Nc2c(F)cc(C(=O)c3ccc4c(-c5c(C)cc6c(ncn6C)c5C)cccn34)cc2F)CC1 (single isomer, unassigned) [Example 34-1, (E)-N-(2,6-difluoro-4-(8-(1,4,6-trimethyl-1H-benzo[d]imidazol-5-yl)indolizine-3-carbonyl)phenyl)-4-(((1r,4r)-4-methoxycyclohexyl)amino)but-2-enamide] | A (A binding rate of 80% or more is rated “A”)
10 | 200 | 310 | CO[C@H]1CC[C@H](NC/C=C/C(=O)Nc2c(F)cc(C(=O)c3ccc4c(-c5c(C)cc6c(ncn6C)c5C)cccn34)cc2F)CC1 (single isomer, unassigned) [Example 34-2, (E)-N-(2,6-difluoro-4-(8-(1,4,6-trimethyl-1H-benzo[d]imidazol-5-yl)indolizine-3-carbonyl)phenyl)-4-(((1r,4r)-4-methoxycyclohexyl)amino)but-2-enamide] | B (a binding rate of 60% or more and less than 80% is rated “B”)
